Experimental findings from ChEMBL document CHEMBL4342480, “Design of Dual Inhibitors of Soluble Epoxide Hydrolase and LTA4 Hydrolase” (ACS Med Chem Lett, 2020) are described below.

The subject of experiment [1] is Macrophage. As to the kind of experiment: Antiinflammatory activity in Escherichia coli O6:K2:H1-induced human M2 macrophage assessed as change in 5-HETE level at 1 uM preincubated for 10 mins followed by Escherichia coli O6:K2:H1-stimulation and measured after 180 mins by UPLC-MS/MS analysis relative to control. In kind it is functional.
For experiment [2], the system named is Macrophage. As to the kind of experiment: Antiinflammatory activity in Escherichia coli O6:K2:H1-induced human M1 macrophage assessed as change in […] level at 10 uM preincubated for 10 mins followed by Escherichia coli O6:K2:H1-stimulation and measured after 180 mins by UPLC-MS/MS analysis relative to control. It counts as functional.
The target of experiment [3] is T1, Bifunctional epoxide hydrolase 2 (Homo sapiens, UniProt P34913).
T1 sequence (P34913 whole entry): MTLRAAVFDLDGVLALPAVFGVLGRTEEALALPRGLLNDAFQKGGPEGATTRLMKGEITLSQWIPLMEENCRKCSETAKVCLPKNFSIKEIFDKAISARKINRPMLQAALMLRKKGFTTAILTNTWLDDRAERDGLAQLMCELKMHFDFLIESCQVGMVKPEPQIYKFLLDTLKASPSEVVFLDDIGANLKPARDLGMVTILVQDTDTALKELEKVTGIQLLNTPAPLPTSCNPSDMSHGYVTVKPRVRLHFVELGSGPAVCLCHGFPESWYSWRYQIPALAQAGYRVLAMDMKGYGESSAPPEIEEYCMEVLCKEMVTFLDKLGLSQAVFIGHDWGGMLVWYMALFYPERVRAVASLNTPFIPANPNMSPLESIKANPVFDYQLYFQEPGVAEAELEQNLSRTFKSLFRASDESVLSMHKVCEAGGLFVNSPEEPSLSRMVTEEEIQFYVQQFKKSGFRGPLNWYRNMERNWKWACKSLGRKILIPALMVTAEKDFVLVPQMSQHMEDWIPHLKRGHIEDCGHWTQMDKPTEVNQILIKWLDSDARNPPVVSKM
Description: Inhibition of full length human soluble epoxide hydrolase (1 to 555 residues) expressed in Escherichia coli BL21(DE3) using non-fluorescent PHOME as substrate preincubated for 30 mins followed by substrate addition and measured for 30 mins by fluorescence based assay.

For experiment [4], the system named is Macrophage. As to the kind of experiment: Antiinflammatory activity in Escherichia coli O6:K2:H1-induced human M2 macrophage assessed as change in total LTB4 level at 10 uM preincubated for 10 mins followed by Escherichia coli O6:K2:H1-stimulation and measured after 180 mins by UPLC-MS/MS analysis relative to control. It counts as functional.
For experiment [5], the system named is Macrophage. As to the kind of experiment: Antiinflammatory activity in Escherichia coli O6:K2:H1-induced human M1 macrophage assessed as change in 15-HETE level at 1 uM preincubated for 10 mins followed by Escherichia coli O6:K2:H1-stimulation and measured after 180 mins by UPLC-MS/MS analysis relative to control. In kind it is functional.
The subject of experiment [6] is Macrophage. As to the kind of experiment: Antiinflammatory activity in Escherichia coli O6:K2:H1-induced human M1 macrophage assessed as change in 5-HETE level at 10 uM preincubated for 10 mins followed by Escherichia coli O6:K2:H1-stimulation and measured after 180 mins by UPLC-MS/MS analysis relative to control. In kind it is functional.
Experiment [7] relates to Macrophage. As to the kind of experiment: Antiinflammatory activity in Escherichia coli O6:K2:H1-induced human M2 macrophage assessed as change in 7-HDHA level at 1 uM preincubated for 10 mins followed by Escherichia coli O6:K2:H1-stimulation and measured after 180 mins by UPLC-MS/MS analysis relative to control. It counts as functional.
Experiment [8] has as its system Macrophage. As to the kind of experiment: Antiinflammatory activity in Escherichia coli O6:K2:H1-induced human M2 macrophage assessed as change in total LTB4 level at 1 uM preincubated for 10 mins followed by Escherichia coli O6:K2:H1-stimulation and measured after 180 mins by UPLC-MS/MS analysis relative to control. It counts as functional.
The subject of experiment [9] is Macrophage. Description: Antiinflammatory activity in Escherichia coli O6:K2:H1-induced human M1 macrophage assessed as change in LTB4 level at 1 uM preincubated for 10 mins followed by Escherichia coli O6:K2:H1-stimulation and measured after 180 mins by UPLC-MS/MS analysis relative to control. In kind it is functional.
The test system of experiment [10] is Macrophage. Description: Antiinflammatory activity in Escherichia coli O6:K2:H1-induced human M2 macrophage assessed as change in 15-HEPE level at 10 uM preincubated for 10 mins followed by Escherichia coli O6:K2:H1-stimulation and measured after 180 mins by UPLC-MS/MS analysis relative to control. It counts as functional.
Experiment [11] has as its system Macrophage. As to the kind of experiment: Antiinflammatory activity in Escherichia coli O6:K2:H1-induced human M1 macrophage assessed as change in 5.15-dlHETE level at 1 uM preincubated for 10 mins followed by Escherichia coli O6:K2:H1-stimulation and measured after 180 mins by UPLC-MS/MS analysis relative to control. In kind it is functional.
Experiment [12] has as its system Macrophage. As to the kind of experiment: Antiinflammatory activity in Escherichia coli O6:K2:H1-induced human M2 macrophage assessed as change in 4-HDHA level at 10 uM preincubated for 10 mins followed by Escherichia coli O6:K2:H1-stimulation and measured after 180 mins by UPLC-MS/MS analysis relative to control. In kind it is functional.
Experiment [13] has as its system Macrophage. As to the kind of experiment: Antiinflammatory activity in Escherichia coli O6:K2:H1-induced human M1 macrophage assessed as change in 15-HEPE level at 1 uM preincubated for 10 mins followed by Escherichia coli O6:K2:H1-stimulation and measured after 180 mins by UPLC-MS/MS analysis relative to control. In kind it is functional.
Experiment [14] has as its system Macrophage. Description: Antiinflammatory activity in Escherichia coli O6:K2:H1-induced human M2 macrophage assessed as change in 12-HEPE level at 1 uM preincubated for 10 mins followed by Escherichia coli O6:K2:H1-stimulation and measured after 180 mins by UPLC-MS/MS analysis relative to control. It counts as functional.
Experiment [15] relates to Macrophage. Description: Antiinflammatory activity in Escherichia coli O6:K2:H1-induced human M1 macrophage assessed as change in 15-HEPE level at 10 uM preincubated for 10 mins followed by Escherichia coli O6:K2:H1-stimulation and measured after 180 mins by UPLC-MS/MS analysis relative to control. It counts as functional.
Experiment [16] has as its system Macrophage. As to the kind of experiment: Antiinflammatory activity in Escherichia coli O6:K2:H1-induced human M1 macrophage assessed as change in total LTB4 level at 1 uM preincubated for 10 mins followed by Escherichia coli O6:K2:H1-stimulation and measured after 180 mins by UPLC-MS/MS analysis relative to control. In kind it is functional.
Experiment [17] concerns Macrophage. As to the kind of experiment: Antiinflammatory activity in Escherichia coli O6:K2:H1-induced human M2 macrophage assessed as change in LTB4 level at 1 uM preincubated for 10 mins followed by Escherichia coli O6:K2:H1-stimulation and measured after 180 mins by UPLC-MS/MS analysis relative to control. It counts as functional.
The test system of experiment [18] is Macrophage. As to the kind of experiment: Antiinflammatory activity in Escherichia coli O6:K2:H1-induced human M1 macrophage assessed as change in 14-HDHA level at 1 uM preincubated for 10 mins followed by Escherichia coli O6:K2:H1-stimulation and measured after 180 mins by UPLC-MS/MS analysis relative to control. In kind it is functional.
Experiment [19] has as its system Macrophage. Description: Antiinflammatory activity in Escherichia coli O6:K2:H1-induced human M1 macrophage assessed as change in 12-HEPE level at 1 uM preincubated for 10 mins followed by Escherichia coli O6:K2:H1-stimulation and measured after 180 mins by UPLC-MS/MS analysis relative to control. It counts as functional.
Experiment [20] concerns Macrophage. Description: Antiinflammatory activity in Escherichia coli O6:K2:H1-induced human M1 macrophage assessed as change in 5.15-dlHETE level at 10 uM preincubated for 10 mins followed by Escherichia coli O6:K2:H1-stimulation and measured after 180 mins by UPLC-MS/MS analysis relative to control. It counts as functional.

As usually defined, the IC50 is the concentration at which inhibition is half-maximal.

As to `O=C(Cc1ccc(Oc2nc3ccccc3s2)cc1F)NCCc1ccc(F)cc1`, the Activity in experiment [1] turned out to be 68%; in [2], 82%; in experiment [4], 72%; in experiment [5], 102%; in experiment [6], 42%; in experiment [7], 94%. Further, the Activity in experiment [8] was 83%; in experiment [9] it was 181%; in [10], 120%; in [11], 152%; in experiment [12], 78%; in experiment [13] it was 97%. The Activity in experiment [14] was found to be 78%; in experiment [15], 191%; in experiment [16], 132%; in [17] it was 72%; in experiment [18] it was 110%; in [19] it was 95%. The Activity in experiment [20] is given as 97%. In [3], this compound registered an IC50 of 300 nM.
